According to patent US12399167B2 (priority 2019, dated 2025):
In brackets after ≈: the same amount, converted by molar mass. Several values for one entry are separate records, joined by “and”; a condition that tells them apart may be missing. Equal values may be shown once. Read-outs that look alike come from different tables or passages of the source.

Experiments:
[1] = test system: zebrafish embryos and larvae (AB strain); conditions: for NH: Number of health fish: of 60 embryos
Protocol: Toxicant exposure of the embryos: transferring healthy zebrafish embryos laid within 4 hours with droppers into 24 well plates which serve as embryo incubation containers, adding one embryo and 2 mL of the test drug liquid into each well, setting four replicates at a time for each concentration, using a total of 4×15 embryos per concentration; then, placing the 24 well plates into an incubator at a temperature of 26±1° C., allowing incubation under a condition of 14 h light: 10 h dark, recording the death number and the incubation time of the embryos every day, and replacing the test drug liquids once every two days during this test stage. Each concentration consumes a total of 60 embryos, and thus multiple 24 well plates are used during the test.
Selection of a test organism: zebrafish is selected as the test organism, the zebrafish is AB strain and embryos used in the test are propagated and obtained by the following methods: before the test, zebrafish broodstock is reared in water at a temperature of 26±1° C., the ratio of light time to dark time is 14 h:10 h, and when it is lighted, it should be naturally illuminated in a 4.8 m×3.0 m room, plus four 40 W fluorescent lamps, and the feeding lasts at least 2 weeks in an environment which is oxygenated by aeration, the zebrafish broodstock is fed once a day during pre-cultivation, and feces and food residues are removed in time. The zebrafish is purchased from the Institute of Hydrobiology of Chinese Academy of Science. The zebrafish has the advantages of short growth cycle, strong reproductive ability, transparent fertilized eggs, and easy observation of embryonic development, making it an important model organism in aquatic ecological toxicology research.
Toxicant exposure of larvae: recording the number of the larvae at the end of the embryo hatching, transferring the larvae into glass beakers containing 200 mL of the test drug liquid with the corresponding test concentration, replacing the test drug liquids once every two days during this test stage that lasts 30 days after hatching, and feeding the zebrafish larvae with yolk in the first three days and then with fairy shrimp twice a day, wherein the larvae are firstly fed on the fourth or fifth day after spawning. The feed amount is adjusted according to the actual situation so as to be able to freely ingest and avoid excess.
During the test, if relevant test data are found to be not in the preceding scopes, then the current test is invalid, and a new test is required to be carried out again.
Observation in the test: observing the hatching rate and survival rate and recording the quantity of the larvae once a day; checking the larvae's malformation, the number of malformed larvae and abnormal behaviors once a week; removing impurities and dead larvae in beakers in a timely manner; all live larvae of the control groups and the concentration test groups are anesthetized with MS-222 for measurement of the body lengths and wet weights one by one at the end of the test, wherein the body length of each adolescent fish is measured with a vernier caliper, and the wet weight of each adolescent fish is weighed with an electronic balance. The reciprocal sensibility of the electronic balance is 0.00001 g, and the moisture on the body surface of each fish needs to be removed when the wet weight is weighed.
DPS statistical analysis software is the existing software and therefore is not described in detail here. Any other software that can implement the statistical analysis function is also available.

[2] = 20° C.; cited from earlier work

SMILES: CN/C(=N/CC1CCOC1)N[N+](=O)[O-] (centres unmarked) [dinotefuran]
- weights of the larvae versus control groups ([1]; 9.375 mg a.i./L): obviously different
- AL: Average length of live fish ([1]; 9.375 mg a.i./L, end of test): 15.86 ± 0.95 a mm
- AM: Accumulative mortality ([1]; 9.375 mg a.i./L, end of test): 26.67 a %
- NH: Number of health fish ([1]; 9.375 mg a.i./L, end of test): 44 Piece
- Average weight of Live fish ([1]; 9.375 mg/L, end of test): 16.53 ± 2.18 b mg
- weights of the larvae versus control groups ([1]; 18.75 mg a.i./L): obviously different
- AL: Average length of live fish ([1]; 18.75 mg a.i./L, end of test): 15.83 ± 0.88 a mm
- AM: Accumulative mortality (death rate of the larvae) ([1]; 18.75 mg a.i./L, end of test): 41.67% and 41.67 b %
- NH: Number of health fish ([1]; 18.75 mg a.i./L, end of test): 35 Piece
- Average weight of Live fish ([1]; 18.75 mg/L, end of test): 14.21 ± 1.68 c mg
- body lengths of the larvae versus control groups ([1]; 37.5 mg a.i./L): obviously different
- weights of the larvae versus control groups ([1]; 37.5 mg a.i./L): obviously different
- AL: Average length of live fish ([1]; 37.5 mg a.i./L, end of test): 13.52 ± 1.61 b mm
- AM: Accumulative mortality (death rate of the larvae) ([1]; 37.5 mg a.i./L, end of test): 46.67% and 46.67 b %
- NH: Number of health fish ([1]; 37.5 mg a.i./L, end of test): 32 Piece
- Average weight of Live fish ([1]; 37.5 mg/L, end of test): 13.89 ± 1.96 c mg
- body lengths of the larvae versus control groups ([1]; 75.0 mg a.i./L): obviously different
- weights of the larvae versus control groups ([1]; 75.0 mg a.i./L): obviously different
- AL: Average length of live fish ([1]; 75.0 mg a.i./L, end of test): 12.83 ± 1.53 b mm
- AM: Accumulative mortality (death rate of the larvae) ([1]; 75.0 mg a.i./L, end of test): 55.0% and 55.0 b %
- NH: Number of health fish ([1]; 75.0 mg a.i./L, end of test): 27 Piece
- Average weight of Live fish ([1]; 75.0 mg/L, end of test): 13.29 ± 2.96 c mg
- fate of all larvae at the end of the test ([1]; 150 mg a.i./L): died
- fate of all larvae at the end of the test ([1]; 300 mg a.i./L): died
- minimum observable effect concentration on the body lengths of the larvae ([1]; end of test): 37.5 mg a.i./L
- minimum observable effect concentration on the weights of the larvae ([1]; end of test): 9.375 mg a.i./L
- unobservable effect concentration on the body lengths of the larvae ([1]; end of test): 18.75 mg a.i./L
- toxic symptoms during the exposure stage ([1]; test groups): no obvious toxic symptoms were observed except malformation of several fishes before death
- solubility in methanol [2]: 57 mg/mL (≈ 282 mM)
